Laboratory results: paper PMC5373622, “Screening for AMPA receptor auxiliary subunit specific modulators” (PLoS ONE, 2017)
pEC50: −log10 of the molar value. Values joined by “and” are separate entries in the source; they are usually repeats but may differ in a detail not shown here. Equal entries are not always repeated. Where two headings read alike, the source gives them in different places.

Experiments:
[1] = molecular target: T1, GluA2flip(Q) (A2Q cells) (Homo sapiens, UniProt P42262); assay: Calcium flux (Fluo-8) compound CRC assay on A2Q cells; assay type: cell-based; settings: CRC from GLUslope1; 1 mM glutamate; PAM; read-out: EC50 Ca2+ Sensing, A2Q
T1 construct: FLAG (C); expressed in transfected cells

[2] = system: GluA2 alone; settings: published value; cited from earlier work
[3] = system: GluA1-stargazin; parameters: method as in PMID 16785437; settings: published value; cited from earlier work
[4] = molecular target: GluA2flip(R)-CNIH3 (A2R-C3 TetON HEK293 cells) (Homo sapiens, UniProt P42262, Q607R); assay: VSD assay (counter-screen, CRC) on A2R-C3 cells; settings: for CMPDmaxmin: max-min 8-100 s; for BaselineReturn: max 250-255 s minus min 0-5 s; for Glumaxmin: max-min normalized value 301-380 s
Text: Cell lines used in the VSD assays were TetON HEK293 cells. This was the parental cell line for all stable cell lines created. We used GluA2flip(R) TetON HEK cell clone #4 that doxycycline (DOX) dependently expresses GluA2flip(R) (A2R). The A2R cells were used as the base cell line to derive cell lines that co-express auxiliary subunits.
(§1) Greiner 384-pp round-bottom plates containing glutamate for the second add were dispensed by hand using a multi-channel pipet at 5X final concentration. A2R-stg cells were plated in 384-well BD PureCoat amine-coated plates (Corning Life Sciences) at 16k cells/well in DMEM medium supplemented with 10% heat-inactivated FBS and 100U/mL PenStrep antibiotic. […] Cells were incubated overnight (O/N) and washed 4 times in HBSS containing 20 mM HEPES, pH 7.4, on an ELX405CW liquid aspirator and dispenser (BioTek). Buffer was left in the wells and an equal amount of 2X FLIPR dye solution was added and incubated on the cells at room temperature for 45 min. Fluorescence signal was collected at 1 Hz using Ex. 480±20 nm/Em. 540±40 nm on a Hamamatsu Functional Drug Screening System 6000 (FDSS). Baseline signal was collected for 10 seconds followed by addition of 10 μl of 5X compound for a final concentration of 10 μM.
This assay was carried out in the same way as the VSD screening assay except a 10-point concentration curve, from 40 μM to 10 nM, was plated in triplicate for each compound on a single 384-well plate. Data were summarized by plotting them as %max GLUslope against log [compound] that was fit to a four-parameter logistical model. %max GLUslope is defined as a normalized GLUslope expressed as a percentage of the mean maximum GLUslope, defined as 100, where background mean vehicle control (VHLslope) were subtracted from both values on a per plate basis. Thus, %max GLU slope = (GLUslope-mean VHLslope/mean maxGLUslope-mean VHLslope).

[5] = molecular target: GluA2flip(Q)-CNIH3 (A2Q-C3 cells) (Homo sapiens, UniProt P42262); assay: Calcium flux (Fluo-8) compound CRC assay on A2Q-C3 cells
Text: (§2) Cell lines used in the calcium flux assay were GluA2flip(Q)-FLAG + GSG1L-1D4 pTREt-Va dual expression in TetON HEK cell clone #20 (A2Q-GSG), GluA2flip(Q)-FLAG + CNIH3-1D4 pTREt-Va dual expression in TetON HEK cell clone #8 (A2Q-C3), GluA2flip(Q)-FLAG pTREt-Va in TetON HEK cell clone #5 (A2Q), and tethered GluA2flip(Q)-FLAG-stargazin [28] in pTREt-Va dual expression in TetON HEK cell clone #13 (A2Q-stg) (Summarized in Table 1).
(§3) Compounds that were selected as hits using the VSD assay were subsequently screened against the calcium permeable A2Q-stg and A2Q-C3 cell lines in a glutamate potency fold-shift assay using the calcium sensing dye Fluo-8 (AAT Bioquest cat #21080). This assay is used to measure how pretreatment with compounds shifts the EC50 of glutamate on A2Q-stg and A2Q-C3 cells. 30 μM of each compound was pre-incubated with the cells for 120 secs and then an 11-point glutamate CRC from 4 mM to 10 pM was applied to the cells for 180 sec. […] Greiner 384-pp round-bottom plates containing glutamate solutions were dispensed by hand using a multi-channel pipet at 5X final concentration. […] Sodium butyrate and DOX were added to the cells at 1 mM and 5 μg/mL, respectively, 24 hours before screening. A2Q-stg cells were induced with 10 μg/mL DOX. Cells were incubated O/N and washed 4 times in low calcium buffer on an ELX405CW liquid aspirator and dispenser (BioTek). Buffer was left in the wells and an equal amount of 4.6 μM (2X) Fluo-8 (AAT Bioquest cat #21080) solution with 2.5 mM probenecid was added and incubated on the cells at room temperature for 40 minutes. Probenecid was added to block dye efflux from the cells [29]. Dye was washed off with low calcium buffer using the ELX405CW (BioTek) and plates were immediately inserted into the FDSS (Hamamatsu). Fluorescence signal was collected at 1 Hz using Ex. 480±20 nm/Em. 540±40 nm. Baseline signal was collected for 10 seconds followed by addition of 20 μl of 2X compound for a final concentration of 30 μM. After 290 seconds, 10 μl of a 5X glutamate solution in high calcium buffer (10 mM HEPES, pH 7.4, 140 mM NaCl, 5 mM KCl, 1 mM MgCl2, 9 mM CaCl2, and 10 mM glucose) was added for 180 seconds.
(§4) These compound CRCs were applied to the cells 2 minutes before a 1mM glutamate stimulation. […] Normalized FDSS traces were curve fit to CRCs using the initial GLUslope (GLUslope1) in a 3–6 sec window after glutamate application. CRCs were also plotted for the traces’ area under the curve (AUC) in the GLUmaxmin window. […] Compounds were plotted as %max GLUslope against log [compound] and fit to a four-parameter logistical model as in the VSD.
(§5) Cells were loaded with Fluo-8 and excess dye was washed out. After 120 secs of pre-incubation with compound at concentrations ranging from 30 μM to 30 nM (Fig 4Bi), 1 mM glutamate was added (Fig 4Bii). In the calcium assay, 250 μM was used as the maxGLU dose because the GLUslope1 values decreased at higher concentrations of glutamate, making it the dose with the maximal GLUslope1 response. […] We measured GLUslope in three consecutive time windows, referred to as GLUslope1-3, because three phases were clearly detectable (Fig 4C). The final CRC curves were calculated from GLUslope1, obtained from the first 3–6 sec window.
(§6) The final compound CRC curves were calculated from GLUslope1. […] The AUC measures the accumulation of calcium instead of gating and sometimes produced a CRC fit when GLUslope1 could not derive an EC50 value.

[6] = molecular target: GluA2flip(Q)-GSG1L (A2Q-GSG cells) (Homo sapiens, UniProt P42262); assay: Calcium flux (Fluo-8) compound CRC assay on A2Q-GSG cells
Text: as §2, §3, §4, §5, §6

[7] = molecular target: GluA2flip(R)-stargazin (A2R-stg TetON HEK293 cells) (Homo sapiens, UniProt P42262, Q607R); assay: Voltage-sensitive dye (VSD) assay (primary screen, counter-screen, CRC) on A2R-stg cells; settings: for CMPDmaxmin: max-min 8-100 s, only compound present; for BaselineReturn: max 250-255 s minus min 0-5 s; for Glumaxmin: max-min normalized value 301-380 s; for Glumaxmin / GluSlope: compound and glutamate present; for GluSlope: slope 310-315 s
Sequence of GluA2flip(R)-stargazin (A2R-stg TetON HEK293 cells) (P42262 25-883 isoform P42262-2 Q607R limits assumed): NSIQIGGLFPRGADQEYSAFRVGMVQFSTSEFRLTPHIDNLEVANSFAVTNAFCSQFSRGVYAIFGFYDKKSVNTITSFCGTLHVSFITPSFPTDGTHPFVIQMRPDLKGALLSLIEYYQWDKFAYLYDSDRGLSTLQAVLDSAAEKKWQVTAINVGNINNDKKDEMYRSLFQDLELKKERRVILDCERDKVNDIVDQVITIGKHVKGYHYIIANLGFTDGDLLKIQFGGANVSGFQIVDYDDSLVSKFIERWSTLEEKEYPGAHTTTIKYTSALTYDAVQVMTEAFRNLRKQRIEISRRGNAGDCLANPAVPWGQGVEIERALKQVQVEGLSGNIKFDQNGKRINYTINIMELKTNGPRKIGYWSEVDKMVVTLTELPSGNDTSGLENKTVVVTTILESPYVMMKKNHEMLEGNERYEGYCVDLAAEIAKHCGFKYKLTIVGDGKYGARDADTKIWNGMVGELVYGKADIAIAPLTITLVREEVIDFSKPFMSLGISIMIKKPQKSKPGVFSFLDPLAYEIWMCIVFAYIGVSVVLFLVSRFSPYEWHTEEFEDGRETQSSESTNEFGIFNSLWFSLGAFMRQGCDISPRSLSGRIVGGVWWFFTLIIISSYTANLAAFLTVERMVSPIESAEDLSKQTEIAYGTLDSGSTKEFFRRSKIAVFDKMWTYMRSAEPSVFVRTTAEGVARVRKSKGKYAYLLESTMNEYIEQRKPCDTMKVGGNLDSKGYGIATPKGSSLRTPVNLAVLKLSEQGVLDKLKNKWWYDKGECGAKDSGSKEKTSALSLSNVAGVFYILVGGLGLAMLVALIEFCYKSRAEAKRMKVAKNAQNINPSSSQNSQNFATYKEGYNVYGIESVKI
Sequence of GluA2flip(R)-stargazin (A2R-stg TetON HEK293 cells) (Q9Y698 whole entry partner): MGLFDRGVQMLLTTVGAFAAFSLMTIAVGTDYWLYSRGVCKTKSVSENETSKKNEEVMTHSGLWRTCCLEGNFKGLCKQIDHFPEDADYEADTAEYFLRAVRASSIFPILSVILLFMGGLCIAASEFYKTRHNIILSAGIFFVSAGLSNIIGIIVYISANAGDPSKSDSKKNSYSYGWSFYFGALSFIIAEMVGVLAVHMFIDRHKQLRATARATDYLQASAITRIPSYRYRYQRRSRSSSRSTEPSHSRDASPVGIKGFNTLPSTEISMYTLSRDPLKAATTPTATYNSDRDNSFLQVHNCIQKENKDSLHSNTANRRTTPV
Experimental: Cell lines used in the VSD assays were TetON HEK293 cells. […] We used GluA2flip(R) TetON HEK cell clone #4 that doxycycline (DOX) dependently expresses GluA2flip(R) (A2R). The A2R cells were used as the base cell line to derive cell lines that co-express auxiliary subunits.
as §1
Hits were selected from this initial screen using 4 different criteria, which we termed CMPDslope, CMPDmaxmin, GLUslope, and GLUmaxmin. […] GLUslope is the fitted slope of the increase in fluorescence within 10 sec after adding glutamate. GLUmaxmin is the difference in the minimum and maximum value in fluorescence signal reached in the 100 sec window after adding glutamate. Compounds were classified as hits if they differed by 3 standard deviations of the mean for each criterion. Tier 1 hits were classified as those that hit in the GLUslope, GLUmaxmin, and CMPDmaxmin windows. Tier 2 hits were classified as compounds that hit in the GLUslope window and either the GLUmaxmin or CMPDmaxmin window. Tier 3 hits were classified as those that hit in only the GLUslope or the GLUmaxmin window. Tier 4 hits were classified as compounds that hit only in the CMPD window, CMPDslope or CMPDmaxmin. Hit selection was further narrowed using the criterion that their signal must return to near baseline values before entering the glutamate add window.
VSD concentration response curves (CRCs): After the above counter-screens, compounds that remained positive were moved forward to collect complete CRCs for A2R-stg and A2R-C3 cell lines. This assay was carried out in the same way as the VSD screening assay except a 10-point concentration curve, from 40 μM to 10 nM, was plated in triplicate for each compound on a single 384-well plate. Data were summarized by plotting them as %max GLUslope against log [compound] that was fit to a four-parameter logistical model. %max GLUslope is defined as a normalized GLUslope expressed as a percentage of the mean maximum GLUslope, defined as 100, where background mean vehicle control (VHLslope) were subtracted from both values on a per plate basis. Thus, %max GLU slope = (GLUslope-mean VHLslope/mean maxGLUslope-mean VHLslope).

Sequence of GluA2flip(R)-CNIH3 (A2R-C3 TetON HEK293 cells) (P42262 25-883 isoform P42262-2 Q607R limits assumed): as the sequence (P42262 25-883 isoform P42262-2 Q607R limits assumed) above
Sequence of GluA2flip(R)-CNIH3 (A2R-C3 TetON HEK293 cells) (Q8TBE1 whole entry partner): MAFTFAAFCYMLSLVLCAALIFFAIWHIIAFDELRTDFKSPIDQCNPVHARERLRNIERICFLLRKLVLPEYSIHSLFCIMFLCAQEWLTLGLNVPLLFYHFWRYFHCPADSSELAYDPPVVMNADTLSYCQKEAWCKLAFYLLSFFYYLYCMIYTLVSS
T1 sequence (P42262 25-883 isoform P42262-2 limits assumed): as the sequence (P42262 25-883 isoform P42262-2 Q607R limits assumed) above, with R583Q counted along it
Sequence of GluA2flip(Q)-GSG1L (A2Q-GSG cells) (P42262 25-883 isoform P42262-2 limits assumed): as the sequence (P42262 25-883 isoform P42262-2 Q607R limits assumed) above, with R583Q counted along it
Sequence of GluA2flip(Q)-GSG1L (A2Q-GSG cells) (Q6UXU4 whole entry partner): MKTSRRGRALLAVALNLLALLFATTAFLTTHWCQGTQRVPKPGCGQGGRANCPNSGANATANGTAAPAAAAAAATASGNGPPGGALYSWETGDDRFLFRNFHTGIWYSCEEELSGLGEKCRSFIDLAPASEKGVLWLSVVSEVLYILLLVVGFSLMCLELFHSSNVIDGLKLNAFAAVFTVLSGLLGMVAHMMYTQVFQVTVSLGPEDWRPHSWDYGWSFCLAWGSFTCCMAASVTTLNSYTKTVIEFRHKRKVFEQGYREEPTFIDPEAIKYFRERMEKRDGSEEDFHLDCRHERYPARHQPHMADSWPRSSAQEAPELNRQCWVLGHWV
Sequence of GluA2flip(Q)-CNIH3 (A2Q-C3 cells) (P42262 25-883 isoform P42262-2 limits assumed): as the sequence (P42262 25-883 isoform P42262-2 Q607R limits assumed) above, with R583Q counted along it
Sequence of GluA2flip(Q)-CNIH3 (A2Q-C3 cells) (Q8TBE1 whole entry partner): as the sequence (Q8TBE1 whole entry partner) above

pEC50 [1]: 5.72 | pEC50 [4]: 6.10 | BaselineReturn ([4]; 7.8125e-6 M ligand, per well): 0.02655 and 0.02476 | CMPDmaxmin ([4]; 7.8125e-6 M ligand, compound only, per well): 0.03133 and 0.03273 | Glumaxmin ([4]; 7.8125e-6 M ligand, compound+glutamate, per well): 0.1051 and 0.1531 | GluSlope ([4]; 7.8125e-6 M ligand, slope of normalized value 310-315 s, compound+glutamate, per well): 1.084e-5 and 1.388e-5 | Glumaxmin ([4]; 7.8125e-6 M, compound and glutamate present, per well): 0.1519 and 0.1861 and 0.161 and 0.1533 | Glumaxmin ([4]; 1.5625e-5 M, compound and glutamate present, per well): 0.222 and 0.2669 and 0.2275 | activity at 250 µM ([4]; HEK293, read-out: AVE %MAXCMPDslope, 0.00025 M, average for the concentration): 20.3% | activity at 500 µM ([4]; HEK293, read-out: AVE %MAXCMPDslope, 0.0005 M, average for the concentration): 20.7% | activity at […] ([4]; HEK293, read-out: AVE %MAXCMPDslope, […], average for the concentration): 19.2% | activity at 250 µM ([4]; HEK293, read-out: AVE %MAXslope, 0.00025 M, average for the concentration): 68.1% | activity at […] ([4]; HEK293, read-out: AVE %MAXslope, […], average for the concentration): 63.8% | activity at 500 µM ([4]; HEK293, read-out: pctMAX, 0.0005 M, Glumaxmin vs vhl and glutamate controls, per well): 57.7% | activity at 500 µM ([4]; HEK293, read-out: pctMAXslope, 0.0005 M, GluSlope vs vhl and glutamate controls, per well): 67.5% | activity at 250 µM ([4]; HEK293, read-out: pctMAXslopeCMPD, 0.00025 M, CMPDSlope vs vhl and glutamate controls, per well): 18.6% | activity at 500 µM ([4]; HEK293, read-out: pctMAXslopeCMPD, 0.0005 M, CMPDSlope vs vhl and glutamate controls, per well): 18.6% | activity at […] ([4]; HEK293, read-out: pctMAXslopeCMPD, […], CMPDSlope vs vhl and glutamate controls, per well): 19.3% | pEC50 [5]: 6.40 | pEC50 [6]: 5.80 | pEC50 [7]: 6.05 | Glumaxmin ([7]; 7.8125e-6 M): 0.1527 and 0.1804 and 0.2045 and 0.2207 | Glumaxmin ([7]; 1.5625e-5 M): 0.2558 and 0.3432 and 0.3162 and 0.3337 | activity at 250 µM ([7]; HEK293, read-out: AVE %MAXCMPDslope, 0.00025 M, average of wells): 28.2% | activity at 500 µM ([7]; HEK293, read-out: AVE %MAXCMPDslope, 0.0005 M, average of wells): 27.5% | activity at […] ([7]; HEK293, read-out: AVE %MAXCMPDslope, […], average of wells): 29% | activity at 250 µM ([7]; HEK293, read-out: AVE %MAXslope, 0.00025 M, average of wells): 71.3% | activity at 500 µM ([7]; HEK293, read-out: AVE %MAXslope, 0.0005 M, average of wells): 65.9% | activity at […] ([7]; HEK293, read-out: AVE %MAXslope, […], average of wells): 68.4% | activity at 250 µM ([7]; HEK293, read-out: pctMAX, 0.00025 M, Glumaxmin as percentage MAX (vhl and glutamate controls)): 55.4% | activity at […] ([7]; HEK293, read-out: pctMAX, […], Glumaxmin as percentage MAX (vhl and glutamate controls)): 44.5% | activity at 250 µM ([7]; HEK293, read-out: pctMAXslope, 0.00025 M, GluSlope as percentage MAX): 67.4% | activity at […] ([7]; HEK293, read-out: pctMAXslope, […], GluSlope as percentage MAX): 64.2% | activity at 250 µM ([7]; HEK293, read-out: pctMAXslopeCMPD, 0.00025 M, CMPDSlope as percentage MAX): 27.7% | activity at 500 µM ([7]; HEK293, read-out: pctMAXslopeCMPD, 0.0005 M, CMPDSlope as percentage MAX): 26.2% | activity at […] ([7]; HEK293, read-out: pctMAXslopeCMPD, […], CMPDSlope as percentage MAX): 28.9%
SMILES: NS(=O)(=O)c1cc2c(cc1Cl)NC(C1CC3C=CC1C3)NS2(=O)=O (stereo not shown) [CTZ, cyclothiazide]
pEC50 [2]: 5.66 | pEC50 [3]: 5.70 | CMPDmaxmin ([4]; 1.95313e-6 M ligand, compound only, per well): 0.02498 and 0.01841 and 0.01791 and 0.02774 | CMPDmaxmin ([4]; 3.90625e-6 M ligand, compound only, per well): 0.02327 and 0.02311 and 0.02554 and 0.02077 | GluSlope ([4]; 3.90625e-6 M ligand, slope of normalized value 310-315 s, compound+glutamate, per well): 3.655e-6 and 4.544e-6 and 4.211e-6 and 5.143e-6 and 7.279e-6 and 5.643e-6 | BaselineReturn ([4]; 7.8125e-6 M, per well): 0.01945 and 0.0284 and 0.03375 and 0.02763 | CMPDmaxmin ([4]; 7.8125e-6 M, only compound present, per well): 0.02499 and 0.03299 and 0.03909 and 0.04405 | GluSlope ([4]; 7.8125e-6 M, slope 310-315 s, compound and glutamate present, per well): 1.427e-5 and 1.51e-5 and 1.46e-5 and 1.177e-5 | BaselineReturn ([4]; 1.5625e-5 M, per well): 0.04439 and 0.04696 and 0.04628 and 0.04829 and 0.04336 and 0.0478 | CMPDmaxmin ([4]; 1.5625e-5 M, only compound present, per well): 0.04028 and 0.05159 and 0.051 and 0.04736 and 0.04942 and 0.04289 | GluSlope ([4]; 1.5625e-5 M, slope 310-315 s, compound and glutamate present, per well): 1.982e-5 and 1.758e-5 and 1.735e-5 and 2.35e-5 and 2.196e-5 and 2.323e-5 | Glumaxmin ([4]; 3.125e-5 M, compound and glutamate present, per well): 0.3443 and 0.3512 and 0.3188 and 0.318 and 0.3671 | GluSlope ([4]; 3.125e-5 M, slope 310-315 s, compound and glutamate present, per well): 2.5659e-5 and 2.5089e-5 and 2.398e-5 and 2.252e-5 and 2.824e-5 and 2.481e-5 | BaselineReturn ([4]; 6.25e-5 M, per well): 0.06773 and 0.07885 and 0.0633 and 0.06912 and 0.08153 and 0.08744 | CMPDmaxmin ([4]; 6.25e-5 M, only compound present, per well): 0.07201 and 0.07489 and 0.07237 and 0.06864 and 0.0824 and 0.08958 | Glumaxmin ([4]; 6.25e-5 M, compound and glutamate present, per well): 0.3694 and 0.3861 and 0.381 and 0.3994 and 0.4282 and 0.4362 | GluSlope ([4]; 6.25e-5 M, slope 310-315 s, compound and glutamate present, per well): 2.565e-5 and 2.689e-5 and 2.837e-5 and 2.784e-5 and 3.091e-5 and 2.855e-5 | CMPDmaxmin ([4]; 0.00025 M, only compound present, per well): 0.06294 and 0.04965 and 0.05528 and 0.07959 and 0.04247 and 0.05305 | Glumaxmin ([4]; 0.0005 M, compound and glutamate present, per well): 0.4488 and 0.457 and 0.483 and 0.5352 and 0.5162 and 0.5252 | GluSlope ([4]; 0.0005 M, slope 310-315 s, compound and glutamate present, per well): 2.6241e-5 and 2.3366e-5 and 3.012e-5 and 2.914e-5 and 2.692e-5 and 2.648e-5 | CMPDmaxmin ([7]; 1.95313e-6 M): 0.01995 and 0.02197 and 0.02343 and 0.0204 and 0.02099 | BaselineReturn ([7]; 3.90625e-6 M): 0.01694 and 0.02593 and 0.02261 and 0.02289 and 0.01533 and 0.01439 | CMPDmaxmin ([7]; 3.90625e-6 M): 0.02654 and 0.02518 and 0.0211 and 0.01857 | BaselineReturn ([7]; 7.8125e-6 M): 0.02783 and 0.02662 and 0.0353 and 0.03259 and 0.02886 and 0.02588 | CMPDmaxmin ([7]; 7.8125e-6 M): 0.0268 and 0.03115 and 0.03117 and 0.04146 and 0.02344 and 0.0309 | GluSlope ([7]; 7.8125e-6 M): 1.356e-5 and 1.3e-5 and 1.265e-5 and 1.674e-5 and 1.689e-5 and 1.461e-5 | CMPDmaxmin ([7]; 1.5625e-5 M): 0.03354 and 0.03952 and 0.05587 and 0.04086 and 0.03876 and 0.03573 | GluSlope ([7]; 1.5625e-5 M): 1.634e-5 and 1.622e-5 and 1.53e-5 and 2.233e-5 and 2.059e-5 and 2.204e-5 | BaselineReturn ([7]; 3.125e-5 M): 0.0693 and 0.04071 and 0.04552 and 0.04058 and 0.03606 and 0.0477 | CMPDmaxmin ([7]; 3.125e-5 M): 0.05834 and 0.04067 and 0.04238 and 0.04539 and 0.03379 and 0.04106 | Glumaxmin ([7]; 3.125e-5 M): 0.4026 and 0.4044 and 0.3672 and 0.4286 and 0.4072 | CMPDmaxmin ([7]; 6.25e-5 M): 0.04424 and 0.05275 and 0.04401 and 0.03573 and 0.03351 and 0.03343 | Glumaxmin ([7]; 6.25e-5 M): 0.4053 and 0.4064 and 0.4608 and 0.469 and 0.4686 and 0.4908 | GluSlope ([7]; 6.25e-5 M): 1.974e-5 and 2.267e-5 and 2.556e-5 and 2.473e-5 and 2.4778e-5 and 2.559e-5 | CMPDmaxmin ([7]; 0.00025 M): 0.0338 and 0.0291 and 0.02948 and 0.02774 and 0.02398 and 0.02262 | Glumaxmin ([7]; 0.00025 M): 0.4981 and 0.5117 and 0.5708 and 0.5208 and 0.5482 and 0.5112 | GluSlope ([7]; 0.00025 M): 2.302e-5 and 2.432e-5 and 2.511e-5 and 2.509e-5 and 2.863e-5 and 2.554e-5 | CMPDmaxmin ([7]; 0.0005 M): 0.04815 and 0.05143 and 0.02949 and 0.04218 and 0.05076 and 0.0521 | Glumaxmin ([7]; 0.0005 M): 0.4797 and 0.5039 and 0.3566 and 0.5216 and 0.4987 and 0.5435 | GluSlope ([7]; 0.0005 M): 2.0723e-5 and 2.479e-5 and 1.376e-5 and 2.232e-5 and 2.492e-5 and 2.656e-5
